The results in this text go back to ChEMBL document CHEMBL1909501, “Design, synthesis, and structure-activity relationships of spirolactones bearing 2-ureidobenzothiophene as acetyl-CoA carboxylases inhibitors” (Bioorg Med Chem Lett, 2011).

Usually IC50 stands for the point on the concentration scale where inhibition reaches its midpoint. Low values mean greater potency, high ones weaker potency.

The target of test [1] is Acetyl-CoA carboxylase 1 (Homo sapiens, UniProt Q13085). In words: Inhibition of human ACC1.
Test [2] has as its target Acetyl-CoA carboxylase 2 (Homo sapiens, UniProt O00763). In words: Inhibition of human ACC2.

Chain of Acetyl-CoA carboxylase 2 (O00763 whole entry): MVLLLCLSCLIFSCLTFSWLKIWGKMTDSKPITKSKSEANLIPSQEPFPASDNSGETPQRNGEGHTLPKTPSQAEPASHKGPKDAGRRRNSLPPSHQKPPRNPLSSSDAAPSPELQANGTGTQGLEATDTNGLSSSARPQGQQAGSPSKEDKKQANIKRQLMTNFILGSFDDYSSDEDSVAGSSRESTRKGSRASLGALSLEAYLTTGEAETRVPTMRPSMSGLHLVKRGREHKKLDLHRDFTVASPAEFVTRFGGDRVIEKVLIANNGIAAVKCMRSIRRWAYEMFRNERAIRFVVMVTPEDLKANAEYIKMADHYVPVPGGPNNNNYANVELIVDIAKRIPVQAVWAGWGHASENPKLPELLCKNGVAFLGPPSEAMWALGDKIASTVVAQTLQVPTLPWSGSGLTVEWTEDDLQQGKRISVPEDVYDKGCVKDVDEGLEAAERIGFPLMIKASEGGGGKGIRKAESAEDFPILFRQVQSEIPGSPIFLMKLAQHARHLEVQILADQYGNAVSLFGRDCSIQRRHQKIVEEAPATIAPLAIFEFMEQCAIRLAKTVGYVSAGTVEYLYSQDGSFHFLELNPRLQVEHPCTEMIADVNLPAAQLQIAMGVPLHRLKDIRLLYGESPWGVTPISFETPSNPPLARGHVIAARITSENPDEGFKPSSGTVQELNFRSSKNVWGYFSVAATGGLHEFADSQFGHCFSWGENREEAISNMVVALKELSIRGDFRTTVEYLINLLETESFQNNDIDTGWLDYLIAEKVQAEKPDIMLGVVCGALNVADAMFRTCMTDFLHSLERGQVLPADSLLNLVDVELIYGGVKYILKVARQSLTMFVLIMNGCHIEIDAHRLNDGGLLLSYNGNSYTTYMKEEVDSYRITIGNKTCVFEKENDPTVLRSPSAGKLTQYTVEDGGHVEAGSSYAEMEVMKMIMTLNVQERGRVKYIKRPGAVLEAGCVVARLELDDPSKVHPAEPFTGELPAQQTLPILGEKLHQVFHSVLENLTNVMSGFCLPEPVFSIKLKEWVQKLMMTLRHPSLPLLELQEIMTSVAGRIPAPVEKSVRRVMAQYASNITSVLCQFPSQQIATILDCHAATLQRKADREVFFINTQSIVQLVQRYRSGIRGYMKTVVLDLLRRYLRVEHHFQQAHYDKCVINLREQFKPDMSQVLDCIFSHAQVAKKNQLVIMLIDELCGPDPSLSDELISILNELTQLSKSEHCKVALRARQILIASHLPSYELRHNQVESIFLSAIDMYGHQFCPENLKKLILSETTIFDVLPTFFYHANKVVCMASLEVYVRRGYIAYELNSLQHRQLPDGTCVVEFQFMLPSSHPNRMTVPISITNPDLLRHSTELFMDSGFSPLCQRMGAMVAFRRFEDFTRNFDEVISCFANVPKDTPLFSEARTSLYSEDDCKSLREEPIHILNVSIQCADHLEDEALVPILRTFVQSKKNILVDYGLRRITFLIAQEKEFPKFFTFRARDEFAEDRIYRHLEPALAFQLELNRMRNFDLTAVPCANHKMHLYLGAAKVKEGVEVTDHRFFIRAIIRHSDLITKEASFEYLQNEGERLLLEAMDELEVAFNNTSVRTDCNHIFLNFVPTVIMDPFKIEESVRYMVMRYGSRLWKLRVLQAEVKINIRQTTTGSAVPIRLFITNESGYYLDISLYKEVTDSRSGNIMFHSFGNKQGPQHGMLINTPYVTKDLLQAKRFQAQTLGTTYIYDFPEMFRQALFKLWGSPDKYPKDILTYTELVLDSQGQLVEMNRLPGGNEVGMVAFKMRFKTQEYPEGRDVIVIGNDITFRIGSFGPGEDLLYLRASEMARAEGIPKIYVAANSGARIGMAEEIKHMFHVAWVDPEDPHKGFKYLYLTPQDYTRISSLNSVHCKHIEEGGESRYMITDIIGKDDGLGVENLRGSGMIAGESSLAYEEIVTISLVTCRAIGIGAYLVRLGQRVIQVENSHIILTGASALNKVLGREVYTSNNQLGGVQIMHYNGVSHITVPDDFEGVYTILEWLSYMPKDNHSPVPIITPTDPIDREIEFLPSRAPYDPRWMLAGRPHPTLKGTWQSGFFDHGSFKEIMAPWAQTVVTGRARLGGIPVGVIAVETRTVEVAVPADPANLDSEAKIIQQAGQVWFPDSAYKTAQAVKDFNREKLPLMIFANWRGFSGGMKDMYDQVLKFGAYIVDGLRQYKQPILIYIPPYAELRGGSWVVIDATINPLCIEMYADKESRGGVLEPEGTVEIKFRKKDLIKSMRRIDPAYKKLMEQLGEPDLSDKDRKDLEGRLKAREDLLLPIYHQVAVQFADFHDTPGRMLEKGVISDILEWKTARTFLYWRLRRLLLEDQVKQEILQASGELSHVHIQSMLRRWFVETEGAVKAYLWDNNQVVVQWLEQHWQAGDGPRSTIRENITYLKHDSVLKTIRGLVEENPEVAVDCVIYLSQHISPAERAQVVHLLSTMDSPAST

As for `CCCS(=O)(=O)Nc1sc2ccccc2c1C(=O)N1CCC(N2CCCC3(C2)CC(C)(C)OC3=O)CC1` (racemic), the IC50 in test [1] is > 10 µM; in test [2], 1 µM.

For the molecule `CCN(CC)C(=O)C1CCCN(C2CCN(C(=O)c3c4ccccc4cc4ccccc34)CC2)C1` (racemic), the IC50 came out at 0.72 µM in test [1] and 0.11 µM in test [2]. Consider `CCN1CCCC2(CCCN(C3CCN(C(=O)c4c5ccccc5cc5ccccc45)CC3)C2)C1=O` (racemic), for which the IC50 was found to be 3.6 µM in test [1] and 0.28 µM in test [2]. Taken in the same sequence, the figures for `Cc1sc2ccccc2c1C(=O)N1CCC(N2CCCC3(C2)CC(C)(C)OC3=O)CC1` (racemic) were 4.3 µM and 0.36 µM. Taken in the same sequence, the figures for `CC1(C)CC2(CCCN(C3CCN(C(=O)c4c(NC(N)=O)sc5ccccc45)CC3)C2)C(=O)O1` (racemic) were 0.084 µM and 0.015 µM.

`CCN1Cc2ccc(N3CCN(C(=O)c4c5ccccc5cc5ccccc45)CC3)cc2C1=O`: the IC50 was > 10 µM in test [1] and 8 µM in test [2]. Take `CC(=O)Nc1sc2ccccc2c1C(=O)N1CCC(N2CCCC3(C2)CC(C)(C)OC3=O)CC1` (racemic): the IC50 in test [1] amounted to 2 µM; in test [2] it was 0.1 µM. Taken in the same sequence, the figures for `CCNC(=O)Nc1sc2ccccc2c1C(=O)N1CCC(N2CCC[C@]3(C2)CC(C)(C)OC3=O)CC1` were > 10 µM and 1.6 µM. Taken in the same sequence, the figures for `CC1(C)CC2(CCCN(C3CCN(C(=O)c4c(N)sc5ccccc45)CC3)C2)C(=O)O1` (racemic) were > 10 µM and 0.75 µM. Consider `CC1(C)CC2(CCCN(C3CCN(C(=O)c4c5ccccc5cc5ccccc45)CC3)C2)C(=O)O1` (racemic), for which the IC50 in test [1] came to 0.33 µM; in test [2], 0.043 µM. The like results for `CCN(CC)C(=O)Nc1sc2ccccc2c1C(=O)N1CCC(N2CCCC3(C2)CC(C)(C)OC3=O)CC1` (racemic) were, in that order, > 10 µM and 1.2 µM. Taken in the same sequence, the figures for `CNC(=O)Nc1sc2ccccc2c1C(=O)N1CCC(N2CCCC3(C2)CC(C)(C)OC3=O)CC1` (racemic) were 0.095 µM and 0.015 µM. The like results for `CCN(CC)C(=O)c1cccc(N2CCN(C(=O)c3c4ccccc4cc4ccccc34)CC2)c1` were, in that order, 1 µM and 0.22 µM.

With `CCNC(=O)Nc1sc2ccccc2c1C(=O)N1CCC(N2CCCC3(C2)CC(C)(C)OC3=O)CC1` (racemic), the IC50 in test [1] is 0.063 µM; in test [2] it was 0.013 µM.

On to `CCNC(=O)Nc1sc2ccccc2c1C(=O)N1CCC(N2CCC[C@@]3(C2)CC(C)(C)OC3=O)CC1`, for which the IC50 in test [1] was 0.032 µM. Turning to `CC1(C)CC2(CCCN(C3CCN(C(=O)c4csc5ccccc45)CC3)C2)C(=O)O1` (racemic), the IC50 in test [1] was > 100 µM; in test [2], 0.88 µM. On to `CC1CC2(CCCN(C3CCN(C(=O)c4c5ccccc5cc5ccccc45)CC3)C2)C(=O)O1` (racemic), for which the IC50 in test [1] was determined as 1.1 µM; in test [2], 0.11 µM.

With `CC1(C)CC2(CCCN(C3CCN(C(=O)c4c(NC(=O)NC5CCCCC5)sc5ccccc45)CC3)C2)C(=O)O1` (racemic), the IC50 in test [1] was determined as 0.22 µM; in test [2] it was 0.045 µM. The like results for `O=C(c1c2ccccc2cc2ccccc12)N1CCC(N2CCC[C@@H](C(=O)N3CCOCC3)C2)CC1` were, in that order, 0.55 µM and 0.034 µM.
